Data set [1] can be described thus: Cytotoxicity against BALB/c mouse peritoneal macrophages assessed as reduction in cell viability incubated for 24 hrs by MTT assay. Type of data set: cell-based, Peritoneal macrophage. (Tetrazolium assays rely on reduction of a dye to a coloured formazan, in cell work by metabolically active cells.)
Data set [2] deals with Leishmania amazonensis. The experiment in a line: Antileishmanial activity against Leishmania amazonensis (MHOM/BR/76/MA-76) promastigotes assessed as reduction in parasite growth incubated for 24 hrs by MTT assay. Type of data set: functional, organism-based. The settings on record: MHOM/BR/76/MA-76, 24 h.
Data set [3] in a line: Selectivity index, ratio of CC50 for cytotoxicity against BALB/c mouse peritoneal macrophages to IC50 for antileishmanial activity against Leishmania amazonensis (MHOM/BR/76/MA-76) promastigotes. The format is toxicity. The settings on record: read-out: Ratio CC50/IC50.
Data set [4] is described as follows: Cytotoxicity against human CCD-1072Sk cells assessed as reduction in cell viability at <400 uM measured after 24 hrs by MTT assay. The format is cell-based.
A short description of data set [5]: Cytotoxicity against human CCD-1072Sk cells assessed as reduction in cell viability measured after 24 hrs by MTT assay. Type of data set: cell-based.
In data set [6] the test system is Leishmania amazonensis. Nature of the data set: Antileishmanial activity against Leishmania amazonensis (MHOM/BR/76/MA-76) intracellular amastigotes infected in BALB/c mouse peritoneal macrophages assessed as reduction in parasite growth incubated for 24 hrs by Giemsa's azur-eosin-methyle blue staining based light microscopy analysis. The format is functional, organism-based. The conditions noted are these: MHOM/BR/76/MA-76, Peritoneal macrophage.

Data set [7] can be described thus: Selectivity index, ratio of CC50 for cytotoxicity against BALB/c mouse peritoneal macrophage to IC50 for antileishmanial activity against Leishmania amazonensis (MHOM/BR/76/MA-76) intracellular amastigotes infected in BALB/c mouse peritoneal macrophages. The settings on record: read-out: Ratio CC50/IC50. The format is toxicity, cell-based.
In data set [8] the test system is Leishmania amazonensis. The experiment in a line: Antileishmanial activity against Leishmania amazonensis (MHOM/BR/76/MA-76) promastigotes assessed as upward shift in concentration response curves of parasite viability incubated for 24 hrs by MTT assay. Type of data set: functional, organism-based.
For data set [9], the system named is Leishmania amazonensis. Nature of the data set: Antileishmanial activity against Leishmania amazonensis (MHOM/BR/76/MA-76) intracellular amastigotes infected in BALB/c mouse peritoneal macrophages assessed as upward shift in concentration response curves of parasite viability incubated for 24 hrs by Giemsa's azur-eosin-methyle blue staining based light microscopy analysis. The format is functional, organism-based. The conditions noted are these: Peritoneal macrophage.

Data set [10] has as its system Leishmania amazonensis. Nature of the data set: Antileishmanial activity against Leishmania amazonensis (MHOM/BR/76/MA-76) intracellular amastigotes infected in BALB/c mouse peritoneal macrophages assessed as decrease in number of amastigotes per 100 cells at 10 to 40 uM incubated for 24 hrs by Giemsa's azur-eosin-methyle blue staining based light microscopy analysis. Type of data set: functional, organism-based. The conditions noted are these: Peritoneal macrophage, dose 10-40 µM.

Data set [11] has as its system Leishmania amazonensis. The experiment in a line: Antileishmanial activity against Leishmania amazonensis (MHOM/BR/76/MA-76) intracellular amastigotes infected in BALB/c mouse peritoneal macrophages assessed as decrease in number of amastigotes per infected cells at 20 to 40 uM incubated for 24 hrs by Giemsa's azur-eosin-methyle blue staining based light microscopy analysis. The format is functional, organism-based. The conditions noted are these: Peritoneal macrophage, dose 20-40 µM.

For data set [12], the system named is Leishmania amazonensis. The experiment in a line: Antileishmanial activity against Leishmania amazonensis (MHOM/BR/76/MA-76) intracellular amastigotes infected in BALB/c mouse peritoneal macrophages assessed as low amastigote mean at 5 to 40 uM incubated for 24 hrs by Giemsa's azur-eosin-methyle blue staining based light microscopy analysis. Type of data set: functional, organism-based. The settings on record: Peritoneal macrophage, dose 5-40 µM.

In data set [13] the test system is Leishmania amazonensis. The experiment in a line: Induction of morphological changes in Leishmania amazonensis (MHOM/BR/76/MA-76) promastigotes assessed as formation of membrane profiles near the flagellar pocket at IC50 incubated for 24 hrs by transmission electron microscopy analysis. Type of data set: functional, organism-based.
Data set [14] has as its system Leishmania amazonensis. The experiment in a line: Antileishmanial activity against Leishmania amazonensis (MHOM/BR/76/MA-76) intracellular amastigotes infected in BALB/c mouse peritoneal macrophages assessed as decrease in number of amastigotes per 100 cells at 40 uM incubated for 24 hrs by Giemsa's azur-eosin-methyle blue staining based light microscopy analysis. The format is functional, organism-based. The conditions noted are these: Peritoneal macrophage.

Data set [15] concerns Leishmania amazonensis. The experiment in a line: Antileishmanial activity against Leishmania amazonensis (MHOM/BR/76/MA-76) intracellular amastigotes infected in BALB/c mouse peritoneal macrophages assessed as decrease in number of amastigotes per infected cells at up to 40 uM incubated for 24 hrs by Giemsa's azur-eosin-methyle blue staining based light microscopy analysis. Type of data set: functional, organism-based. The conditions noted are these: Peritoneal macrophage.

In data set [16] the test system is Leishmania amazonensis. The experiment in a line: Antileishmanial activity against Leishmania amazonensis (MHOM/BR/76/MA-76) intracellular amastigotes infected in BALB/c mouse peritoneal macrophages assessed as low amastigote mean at 40 uM incubated for 24 hrs by Giemsa's azur-eosin-methyle blue staining based light microscopy analysis. The format is functional, organism-based. The conditions noted are these: Peritoneal macrophage.

Data set [17] has as its system Leishmania amazonensis. The experiment in a line: Induction of morphological changes in Leishmania amazonensis (MHOM/BR/76/MA-76) promastigotes assessed as lipid inclusions at IC50 incubated for 24 hrs by transmission electron microscopy analysis. Type of data set: functional, organism-based.
Data set [18] concerns Leishmania amazonensis. The experiment in a line: Induction of morphological changes in Leishmania amazonensis (MHOM/BR/76/MA-76) promastigotes assessed as formation of small vesicles surrounded by a membrane in cytoplasm at IC50 incubated for 24 hrs by transmission electron microscopy analysis. The format is functional, organism-based.

Activity calls are given as the source filed them. The rule behind the calls is not given here.

For orientation: CC50 means the concentration giving 50% cytotoxicity. As a reminder, the IC50 is the concentration at which inhibition is half-maximal.

`OC(c1ccccc1)c1cn(-c2ccc(Br)cc2)nn1` (stereo unspecified): in data set [1], the CC50 at 24 h is above 400 µM. Besides, the IC50 in the data set with Leishmania amazonensis [2] was above 200 µM. Also, the selectivity ratio in data set [3] was above 2. For the same compound, the Activity entry in data set [4] is given as “Non-Toxic”.
The matching figures for `OC(c1cn(-c2ccc(Br)cc2)nn1)c1ccccc1F` (stereo unspecified): above 400 µM, 110 µM, above 3.62 and “Non-Toxic”.
On the same counts, the results for `COC(=O)c1ccc(-n2cc(C(O)c3cccnc3-c3ccccc3)nn2)cc1` (stereo unspecified) are above 400 µM, 95.9 µM, above 4.17 and “Non-Toxic”.
In the case of `CCCCCCCCCCCCCCCCOP(=O)([O-])OCC[N+](C)(C)C` [MILTEFOSINE], the CC50 at 24 h in data set [5] was found to be 191 µM; in data set [1], 169 µM. Also, the IC50 with Leishmania amazonensis [2] was found to be 8.02 µM; in the data set on Leishmania amazonensis [6], 5.11 µM. Further, the selectivity ratio in data set [3] worked out at 21.1; in [7], 33.2. The outcome with Leishmania amazonensis [8], in the data set on Leishmania amazonensis [9], in the data set with Leishmania amazonensis [10], with Leishmania amazonensis [11] and with Leishmania amazonensis [12] was Active.
In the case of `OC(c1ccc(Br)cc1)c1cn(-c2ccc(F)cc2)nn1` (stereo unspecified), in [1], the CC50 at 24 h was found to be 182 µM. Besides, the IC50 in the data set with Leishmania amazonensis [2] was determined as 45.6 µM. Moreover, the selectivity ratio in data set [3] came to 4. Besides, in [4], the Activity result was “Non-Toxic”.
The matching figures for `O=[N+]([O-])c1ccccc1C(O)c1cn(-c2ccc(Br)cc2)nn1` (stereo unspecified): above 400 µM, 190 µM, above 2.1 and “Non-Toxic”.
On to `O=c1ccc2cc(-n3cc(C(O)c4ccccc4Br)nn3)ccc2o1` (stereo unspecified), for which the CC50 at 24 h in [1] was 348 µM. The IC50 in the data set with Leishmania amazonensis [2] was found to be 81.4 µM. Also, in [3], the selectivity ratio is 4.27. In addition, in data set [4], the Activity result is “Non-Toxic”.
Take `O=c1ccc2cc(-n3cc(C(O)c4ccccc4-c4ccccc4)nn3)ccc2o1` (stereo unspecified): in [1], the CC50 at 24 h was 141 µM. Besides, the IC50 with Leishmania amazonensis [2] was above 200 µM. For the same compound, the selectivity ratio in data set [3] is below 0.7. Besides, the Activity result in data set [4] was “Non-Toxic”.
Consider `CC(=O)c1ccc(-n2cc(C(O)c3ccccc3-c3ccccc3)nn2)cc1` (stereo unspecified), for which the CC50 at 24 h in data set [1] worked out at 234 µM. The IC50 in the data set on Leishmania amazonensis [2] stood at 56.6 µM. In addition, the selectivity ratio in [3] came out at 4.12. Besides, the Activity entry in data set [4] is “Non-Toxic”.
In the case of `COC(=O)c1ccc(-n2cc(C(O)c3ccccc3Br)nn2)cc1` (stereo unspecified), the outcome in the data set on Leishmania amazonensis [13], in the data set with Leishmania amazonensis [8], in the data set with Leishmania amazonensis [9], with Leishmania amazonensis [14], in the data set with Leishmania amazonensis [16] and in the data set with Leishmania amazonensis [17] was Active. For the same compound, the result with Leishmania amazonensis [18] was Active. Besides, the CC50 at 24 h in data set [1] is 297 µM. Also, the values for the IC50 with Leishmania amazonensis [2] and with Leishmania amazonensis [6] were 27.8 µM and 37 µM, respectively. The selectivity ratio in data set [3] came out at 10.7; in data set [7], 8.03. For the same compound, the Activity result in data set [4] is recorded as “Non-Toxic”. The result with Leishmania amazonensis [15] was inactive.
In the case of `OC(c1cn(-c2ccc(Br)cc2)nn1)c1ccccc1Br` (stereo unspecified), the CC50 at 24 h in data set [1] was 313 µM. Further, the IC50 in the data set on Leishmania amazonensis [2] is above 200 µM. The selectivity ratio in [3] was below 1.56. For the same compound, the Activity result in [4] is “Non-Toxic”.

These data come from ChEMBL document CHEMBL5053500, “Nitric Oxide Induction in Peritoneal Macrophages by a 1,2,3-Triazole Derivative Improves Its Efficacy upon Leishmania amazonensis In Vitro Infection” (J Med Chem, 2021).
